The text below walks through data of patent US9334263B2, “Compositions useful for treating disorders related to kit” (BLUEPRINT MEDICINES CORPORATION, priority 2013, dated 2016).

In one assay the target is T1, D816V Kit (Homo sapiens, UniProt P10721, D816V).
T1 construct: purchased Carna Bioscience 08-156
The assay can be described thus: Kit D816V assay at Km (Caliper electrophoretic mobility shift). In kind it is biochemical. The following applies: 15 uM ATP, 25 C, 90 minutes. Summed up:
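Read-out is the ratio of phosphorylated to unphosphorylated fluorescent peptide, resolved by mobility shift on a Caliper EZ Reader 2.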

In the next assay the target is T2, wild type Kit (Homo sapiens, UniProt P10721).
T2 construct: purchased Carna Bioscience 08-156
T2 sequence (P10721 26-976): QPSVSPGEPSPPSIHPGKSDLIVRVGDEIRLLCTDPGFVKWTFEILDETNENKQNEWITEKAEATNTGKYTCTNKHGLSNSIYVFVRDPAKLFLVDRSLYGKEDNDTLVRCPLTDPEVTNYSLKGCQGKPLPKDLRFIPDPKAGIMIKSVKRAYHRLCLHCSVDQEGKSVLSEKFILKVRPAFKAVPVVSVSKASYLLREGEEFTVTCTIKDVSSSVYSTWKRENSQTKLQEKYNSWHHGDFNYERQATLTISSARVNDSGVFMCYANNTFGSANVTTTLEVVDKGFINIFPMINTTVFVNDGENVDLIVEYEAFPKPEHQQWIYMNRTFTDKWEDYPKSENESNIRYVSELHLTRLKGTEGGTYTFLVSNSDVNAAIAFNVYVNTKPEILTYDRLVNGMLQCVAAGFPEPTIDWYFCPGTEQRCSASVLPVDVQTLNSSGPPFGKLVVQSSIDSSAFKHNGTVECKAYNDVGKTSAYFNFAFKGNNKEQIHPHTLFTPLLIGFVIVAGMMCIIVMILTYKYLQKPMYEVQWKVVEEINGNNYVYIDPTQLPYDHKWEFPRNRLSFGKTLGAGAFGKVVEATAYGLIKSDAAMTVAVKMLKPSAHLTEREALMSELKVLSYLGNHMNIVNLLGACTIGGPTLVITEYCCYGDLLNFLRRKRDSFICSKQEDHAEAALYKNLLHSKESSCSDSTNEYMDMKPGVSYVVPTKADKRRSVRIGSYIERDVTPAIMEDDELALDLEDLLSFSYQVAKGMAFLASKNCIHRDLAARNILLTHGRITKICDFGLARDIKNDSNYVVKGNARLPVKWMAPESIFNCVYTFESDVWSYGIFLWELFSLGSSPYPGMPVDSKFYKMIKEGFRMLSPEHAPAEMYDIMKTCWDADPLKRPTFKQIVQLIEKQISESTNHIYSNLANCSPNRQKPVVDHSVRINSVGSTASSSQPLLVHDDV
The assay can be described thus: Kit wild type assay at Km (Caliper electrophoretic mobility shift). The assay is classed as biochemical. The following applies: 400 uM ATP, 25 C, 90 minutes; read-out: WT KIT. Here is the method:
In order to assess the activity of chemical compounds against the relevant kinase of interest, the Caliper LifeSciences electrophoretic mobility shift technology platform is used. Fluorescently labeled substrate peptide is incubated in the presence of kinase and ATP so that a […] proportion of the peptide is phosphorylated. At the end of the reaction, the mix of phosphorylated (product) and non-phosphorylated (substrate) peptides are passed through the microfluidic system of the Caliper EZ Reader 2, under an applied potential difference. The presence of the phosphate group on the product peptide provides a difference in mass and charge between those of the substrate peptide, resulting in a separation of the substrate and product pools in the sample. As the pools pass a LEDS within the instrument, these pools are detected and resolved as separate peaks. The ratio between these peaks therefore reflects the activity of the chemical matter at that concentration in that well, under those conditions.
The reaction was stopped by the addition of 70 ul of Stop buffer (100 mM HEPES pH 7.5, 0.015% Brij 35, 35 mM EDTA and 0.2% of Coating Reagent 3 (Caliper Lifesciences)). The plate was then read on a Caliper EZReader 2 (protocol settings: −1.9 psi, upstream voltage −700, downstream voltage −3000, post sample sip 35 s).

Assay [1] addresses T3, Kit D816V (HMC1.2 cells, Kit V560G and D816V) (Homo sapiens, UniProt P10721, D816V/V560G).
T3 construct: endogenous in cells; host or cells: HMC1.2 cells
As to the kind of experiment: HMC1.2 autophosphorylation assay (AlphaLISA, phospho-Y719 c-Kit). In kind it is cell-based. The note with it: Kit autophosphorylation at tyrosine 719, 90 minutes, read-out: Cellular Activity. The essentials:
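AlphaScreen signal comes from lysed HMC1.2 cells incubated with phospho-Y719 and total c-Kit antibodies (15 nM final), acceptor beads and then streptavidin donor beads, 2 h each at room temperature. Beforehand, cells deprived of serum overnight received compound for 90 min as a 10-point series, 25 uM–95.4 pM, 0.25% DMSO.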

T1 sequence (P10721 26-976 D816V): as the sequence (P10721 26-976) above, with D791V counted along it
T3 sequence (P10721 26-976 V560G/D816V): as the sequence (P10721 26-976) above, with V535G, D791V counted along it

Regarding `c1ccc(Cc2cnc(N3CCN(c4ncnc(Nc5cc[nH]n5)n4)CC3)nc2)cc1` [Compound 5], the IC50 at D816V Kit fell in the range of 1.01 to 10 nM; on wild type Kit it was 100 to 1000 nM; in assay [1], 1000 to 10000 nM.
Consider `c1ccc(Cc2cnc(N3CCN(c4ncnc(Nc5ccccc5)n4)CC3)nc2)cc1` [Compound 7], for which the results for the IC50 (on D816V Kit; on wild type Kit; in assay [1]) were 1.01 to 10 nM, 11 to 100 nM and 1000 to 10000 nM, respectively.
`Nc1cncc(Nc2ncnc(N3CCN(c4ncc(Cc5ccccc5)cn4)CC3)n2)c1` [Compound 13]: the IC50 at D816V Kit is < 1 nM; on wild type Kit it was < 10 nM; in assay [1], 10 to 100 nM.
Turning to `NCc1cccc(Nc2ncnc(N3CCN(c4ncc(Cc5ccccc5)cn4)CC3)n2)c1` [Compound 14], the IC50 is < 1 nM at D816V Kit, 11 to 100 nM at wild type Kit and 100 to 1000 nM in assay [1].
With `OCc1ccc(Nc2ncnc(N3CCN(c4ncc(Cc5ccccc5)cn4)CC3)n2)cc1` [Compound 16], the IC50 on D816V Kit is < 1 nM; on wild type Kit it was 11 to 100 nM; in assay [1], 100 to 1000 nM.
Consider `CC(=O)c1cccc(Nc2ncnc(N3CCN(c4ncc(Cc5ccccc5)cn4)CC3)n2)c1` [Compound 22], for which the IC50 on D816V Kit lay within 1.01 to 10 nM; at wild type Kit, 100 to 1000 nM; in assay [1], 100 to 1000 nM.
As to `NC(=O)c1cccc(Nc2ncnc(N3CCN(c4ncc(Cc5ccccc5)cn4)CC3)n2)c1` [Compound 23], the IC50 at D816V Kit was 1.01 to 10 nM; on wild type Kit, 11 to 100 nM; in assay [1] it was 100 to 1000 nM.
The matching figures for `NC(=O)c1ccc(Nc2ncnc(N3CCN(c4ncc(Cc5ccccc5)cn4)CC3)n2)cc1` [Compound 24]: 1.01 to 10 nM, 11 to 100 nM and 100 to 1000 nM.
For the compound `CC(O)c1cccc(Nc2ncnc(N3CCN(c4ncc(Cc5ccccc5)cn4)CC3)n2)c1` (stereo not shown) [Compound 26], the figures for the IC50 (on D816V Kit; at wild type Kit; in assay [1]) were 1.01 to 10 nM, 11 to 100 nM and 100 to 1000 nM, respectively.
As to `COCCn1cc(Nc2ncnc(N3CCN(c4ncc(Cc5ccccc5)cn4)CC3)n2)cn1` [Compound 31], the IC50 at D816V Kit was < 1 nM; at wild type Kit, < 10 nM; in assay [1], 10 to 100 nM.
`c1ccc(Cc2cnc(N3CCN(c4ncnc(Nc5ccc6c(c5)CNCC6)n4)CC3)nc2)cc1` [Compound 41]: the IC50 at D816V Kit was < 1 nM; on wild type Kit it was < 10 nM; in assay [1], 10 to 100 nM.
Regarding `c1ccc(Cc2cnc(N3CCN(c4ncnc(Nc5ccc6c(c5)NCCC6)n4)CC3)nc2)cc1` [Compound 42], the IC50 at D816V Kit lay in the range of 1.01 to 10 nM; at wild type Kit it was 11 to 100 nM; in assay [1] it was 10 to 100 nM.
With `CN(C)Cc1cccc(Nc2ncnc(N3CCN(c4ncc(Cc5ccccc5)cn4)CC3)n2)c1` [Compound 49], the IC50 on D816V Kit is < 1 nM; at wild type Kit, 11 to 100 nM; in assay [1] it was 10 to 100 nM.
On to `CC(C)(O)c1cccc(Nc2ncnc(N3CCN(c4ncc(Cc5ccccc5)cn4)CC3)n2)c1` [Compound 50], for which the values for the IC50 (at D816V Kit; on wild type Kit; in assay [1]) were 1.01 to 10 nM, 11 to 100 nM and 1000 to 10000 nM, respectively.
Take `c1ccc(Cc2cnc(N3CCN(c4ncnc(Nc5cnn(CC6CNC6)c5)n4)CC3)nc2)cc1` [Compound 51]: the IC50 is < 1 nM at D816V Kit, 11 to 100 nM at wild type Kit and 10 to 100 nM in assay [1].
On to `N#Cc1ccc(NC(=O)N2CCN(c3ncnc(Nc4ccc(N5CCOCC5)cc4)n3)CC2)cc1` [Compound 59], for which the IC50 at D816V Kit was > 100 nM; on wild type Kit, 100 to 1000 nM.
On to `CN(C)CCn1cc(Nc2ncnc(N3CCN(c4ncc(Cc5ccccc5)cn4)CC3)n2)cn1` [Compound 60], for which the IC50 at D816V Kit was < 1 nM; at wild type Kit it was 11 to 100 nM; in assay [1], 10 to 100 nM.
As to `OCC(O)Cn1cc(Nc2ncnc(N3CCN(c4ncc(Cc5ccccc5)cn4)CC3)n2)cn1` (stereo not shown) [Compound 64, 3-(4-(4-(4-(5-benzylpyrimidin-2-yl)piperazin-1-yl)-1,3,5-triazin-2-ylamino)-1H-pyrazol-1-yl)propane-1,2-diol], the IC50 on D816V Kit is < 1 nM; at wild type Kit it was 11 to 100 nM; in assay [1], 10 to 100 nM.
As to `CC(=O)NCc1cccc(Nc2ncnc(N3CCN(c4ncc(Cc5ccccc5)cn4)CC3)n2)c1` [Compound 74], the figures for the IC50 (at D816V Kit; at wild type Kit; in assay [1]) were < 1 nM, 11 to 100 nM and 10 to 100 nM, respectively.
Regarding `c1ccc(Cc2cnc(N3CCN(c4ncnc(Nc5ccc6c(c5)CNCCO6)n4)CC3)nc2)cc1` [Compound 76], the IC50 is < 1 nM at D816V Kit, < 10 nM on wild type Kit and 10 to 100 nM in assay [1].
On to `c1ccc(Cc2cnc(N3CCN(c4ncnc(Nc5cnn(C[C@H]6CCCN6)c5)n4)CC3)nc2)cc1` [Compound 84], for which the values for the IC50 (at D816V Kit; on wild type Kit; in assay [1]) were < 1 nM, < 10 nM and 10 to 100 nM, respectively.
On to `c1ccc(Cc2cnc(N3CCN(c4ncnc(Nc5cnn(C[C@@H]6CCCN6)c5)n4)CC3)nc2)cc1` [Compound 85], for which the IC50 on D816V Kit was < 1 nM; on wild type Kit, 11 to 100 nM; in assay [1] it was 10 to 100 nM.
Regarding `c1ccc(Cc2cnc(N3CCN(c4ncnc(Nc5cnn(CC6CCOC6)c5)n4)CC3)nc2)cc1` (stereo not shown) [Compound 86], the IC50 on D816V Kit is < 1 nM; at wild type Kit, 11 to 100 nM; in assay [1], 10 to 100 nM.
Take `CP(C)(=O)c1ccc(Nc2ncnc(N3CCN(c4ncc(Cc5ccccc5)cn4)CC3)n2)cc1` [Compound 89]: the figures for the IC50 (on D816V Kit; at wild type Kit; in assay [1]) were < 1 nM, 11 to 100 nM and 100 to 1000 nM, respectively.
The matching figures for `CS(=O)(=O)c1ccc(Nc2ncnc(N3CCN(c4ncc(Cc5ccccc5)cn4)CC3)n2)cc1` [Compound 94]: 1.01 to 10 nM, 11 to 100 nM and 10 to 100 nM.
On to `NS(=O)(=O)c1cccc(Nc2ncnc(N3CCN(c4ncc(Cc5ccccc5)cn4)CC3)n2)c1` [Compound 95], for which the IC50 at D816V Kit was < 1 nM; on wild type Kit, 11 to 100 nM; in assay [1], 1000 to 10000 nM.
As to `NS(=O)(=O)c1ccc(Nc2ncnc(N3CCN(c4ncc(Cc5ccccc5)cn4)CC3)n2)cc1` [Compound 96], the IC50 on D816V Kit is < 1 nM; on wild type Kit it was 11 to 100 nM; in assay [1], 100 to 1000 nM.
On to `c1ccc(Cc2cnc(N3CCN(c4ncnc(Nc5ccc(N6CCOCC6)cc5)n4)CC3)nc2)cc1` [Compound 103], for which the IC50 on D816V Kit was in the range of 1.01 to 10 nM; on wild type Kit, 11 to 100 nM; in assay [1] it was 100 to 1000 nM.
As for `c1ccc(Cc2cnc(N3CCN(c4ncnc(Nc5cccc(N6CCOCC6)c5)n4)CC3)nc2)cc1` [Compound 104], the figures for the IC50 (on D816V Kit; on wild type Kit; in assay [1]) were 1.01 to 10 nM, 11 to 100 nM and 100 to 1000 nM, respectively.
The matching figures for `c1ccc(Cc2cnc(N3CCN(c4ncnc(Nc5cccc(O[C@@H]6CCNC6)c5)n4)CC3)nc2)cc1` [Compound 105]: < 1 nM, 11 to 100 nM and 100 to 1000 nM.
Turning to `c1ccc(Nc2cnc(N3CCN(c4ncnc(Nc5ccc(N6CCOCC6)cc5)n4)CC3)nc2)cc1` [Compound 114], the IC50 on D816V Kit is 1.01 to 10 nM; on wild type Kit, 100 to 1000 nM; in assay [1] it was 100 to 1000 nM.
On to `Oc1ccccc1Cc1cnc(N2CCN(c3ncnc(Nc4ccc5c(c4)CNCC5)n3)CC2)nc1` [Compound 115], for which the IC50 at D816V Kit is < 1 nM; at wild type Kit, < 10 nM; in assay [1], 10 to 100 nM.
For `c1ccc(Cc2cnc(N3CCN(c4ncnc(Nc5ccc6c(c5)CNCC6)n4)C(Cc4ccccc4)C3)nc2)cc1` (stereo not shown) [Compound 274], the IC50 fell in the range of 10 to 100 nM on D816V Kit and 100 to 1000 nM on wild type Kit.
